Experimental data taken from patent US20240269298A1, “PHOSPHONYL DERIVATIVE, AND COMPOSITION AND PHARMACEUTICAL APPLICATION THEREOF” (XIZANG HAISCO PHARMACEUTICAL CO., LTD., priority 2021, published 2024).
Like-named read-outs stand apart in the source and are kept apart here.

How the values were obtained:
[1] = Pharmacokinetic test in mice; type: in vivo; conditions: male, ICR, mouse, po, administration i.g. (10 mg/kg), plasma
Summary of the method: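 Male ICR mice (20-25 g), fasted 12-14 h before dosing and fed 4 h after, received a single intravenous or intragastric dose. Orbital plasma sampled from 0 to 24 h (5 min-24 h points); LC-MS/MS quantitation for PK parameters and bioavailability.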

[2] = test system: NCI-H1975 (EGFR-L858R-T790M) cells; experiment: Inhibitory activity on proliferation of NCI-H1975 (EGFR-L858R-T790M) cells (CTG, 72 h); type: cell-based; conditions: Homo sapiens
Summary of the method: (§1)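 IC50 values come from S-shaped dose-survival fits of CTG signal expressed as % of vehicle. Compound exposure lasted 72 h at 37 °C with 0.1% DMSO; seeding was 3000 A431 cells/well in DMEM+10% FBS and 1000 NCI-H1975 cells/well in RPMI1640+10% FBS.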

[3] = test system: NCI-H1975 EGFR-L858R-T790M-C797S cells; experiment: Inhibitory activity on proliferation of NCI-H1975 EGFR-L858R-T790M-C797S cells (CellTiter-Glo, 72 h); type: cell-based; conditions: Homo sapiens
Experimental: NCI-H1975 EGFR-L858R-T790M-C797S cells were cultured in an incubator at 37° C. with 5% CO2, and the culture medium was RPMI1640+10% FBS+100 μg/mL hygromycin. The cells in the logarithmic phase were collected, and the cell suspension was adjusted to an appropriate concentration with a hygromycin-free culture medium, and then plated on a 96-well plate at a density of 1500 cells/well and a volume of 90 μL. 10 μL of the compounds at different concentrations were added, and a vehicle control group (cells plus DMSO) was provided, wherein the concentration of DMSO was 0.1%. The cell culture plate was cultured in an incubator at 37° C. with 5% CO2 for 72 hours. After the incubation was completed, according to operation instructions for a CellTiter-Glo kit (Promega, G7572), 50 μL of CTG solution, which was already pre-melted and equilibrated to room temperature, was added to each well, and the mixtures were uniformly mixed for 2 min using a microplate shaker. The plate was placed at room temperature for 10 min, and then […] signal values were measured using a microplate reader (Envision 2104). […] was processed based on formula (2), and using the GraphPad Prism 5.0 software and nonlinear regression model, S-shaped dose-survival curves were plotted, and IC50 values were calculated. wherein Vsample was the readout of the drug-treated group, and Vvehicle control was the readout of the control group.

[4] = target: T1, EGFR protein in NCI-H1975 EGFR-L858R-T790M-C797S cells (Homo sapiens, UniProt P00533, C797S/L858R/T790M); experiment: Degradation activity on EGFR protein in NCI-H1975 EGFR-L858R-T790M-C797S cells, Method I (western blot, 72 h); type: cell-based; conditions: 72 h incubation, EGFR protein relative to DMSO control
T1 construct: expressed in transfected cells; host or cells: NCI-H1975 EGFR-L858R-T790M-C797S (kept under hygromycin selection)
Experimental: Protein sample preparation: NCI-H1975 EGFR-L858R-T790M-C797S cells were cultured in an incubator at 37° C. with 5% CO2, and the culture medium was RPMI1640+10% FBS+100 μg/mL hygromycin. The cells in the logarithmic phase were collected, and the cell suspension was adjusted to an appropriate concentration with a hygromycin-free culture medium, plated on a 6-well plate at a density of 200000 cells/well and a volume of 2 mL, and cultured overnight in an incubator at 37° C. with 5% CO2. The next day, the compounds at different concentrations were added. DMSO control wells were provided, wherein the concentration of DMSO in all wells was 0.1%. The 6-well plate was cultured in an incubator at 37° C. with 5% CO2 for 72 h, and then 30 μL of RIPA lysates (Beyotime, Cat. P0013B) containing protease inhibitors (Beyotime, Cat. P0013B) were added. The mixtures were lysed on ice for 30 min. Centrifugation was carried out at 13000 rpm/min at 4° C. for 20 min to collect protein supernatant samples, and protein quantification was performed by the BCA method. Samples for western blot detection were prepared.
Western blot detection: 20 μg of protein samples were added to each well, subjected to polyacrylamide gel electrophoresis and transferred to a membrane, and then diluted anti-EGFR (CST, Cat. 4267S) and […] (Kangchen, Cat. KC-5G4) antibodies were added and incubated overnight at 4° C. After washing the membrane, diluted goat anti-rabbit (Licor, Cat. 926-32211) and goat anti-mouse (Licor, Cat. 926-68070) antibodies were added and incubated in the dark for 45 min. Scanning and detection at wavelengths of 700 nm and 800 nm were performed with a far-infrared imaging system (Odyssey).
According to formula (3), the expression level of EGFR protein in the cells relative to the DMSO control group was calculated after incubation with different concentrations of compounds. wherein EGFRcompound was the fluorescence value of EGFR protein after incubation with compounds, and EGFRvehicle was the fluorescence value of EGFR protein in the DMSO control group. Using the Origin 9.2 software, the drug concentration DC50 values when the expression level of EGFR protein was 50% relative to the DMSO control group were calculated.

A431 (EGFR-WT) cells = experiment: Inhibitory activity on proliferation of A431 (EGFR-WT) cells (CTG, 72 h); type: cell-based; conditions: Homo sapiens, A-431
Summary of the method: as §1

[5] = read-out: IC50 (value in brackets)

T1 sequence (P00533 25-1210 T790M/C797S/L858R): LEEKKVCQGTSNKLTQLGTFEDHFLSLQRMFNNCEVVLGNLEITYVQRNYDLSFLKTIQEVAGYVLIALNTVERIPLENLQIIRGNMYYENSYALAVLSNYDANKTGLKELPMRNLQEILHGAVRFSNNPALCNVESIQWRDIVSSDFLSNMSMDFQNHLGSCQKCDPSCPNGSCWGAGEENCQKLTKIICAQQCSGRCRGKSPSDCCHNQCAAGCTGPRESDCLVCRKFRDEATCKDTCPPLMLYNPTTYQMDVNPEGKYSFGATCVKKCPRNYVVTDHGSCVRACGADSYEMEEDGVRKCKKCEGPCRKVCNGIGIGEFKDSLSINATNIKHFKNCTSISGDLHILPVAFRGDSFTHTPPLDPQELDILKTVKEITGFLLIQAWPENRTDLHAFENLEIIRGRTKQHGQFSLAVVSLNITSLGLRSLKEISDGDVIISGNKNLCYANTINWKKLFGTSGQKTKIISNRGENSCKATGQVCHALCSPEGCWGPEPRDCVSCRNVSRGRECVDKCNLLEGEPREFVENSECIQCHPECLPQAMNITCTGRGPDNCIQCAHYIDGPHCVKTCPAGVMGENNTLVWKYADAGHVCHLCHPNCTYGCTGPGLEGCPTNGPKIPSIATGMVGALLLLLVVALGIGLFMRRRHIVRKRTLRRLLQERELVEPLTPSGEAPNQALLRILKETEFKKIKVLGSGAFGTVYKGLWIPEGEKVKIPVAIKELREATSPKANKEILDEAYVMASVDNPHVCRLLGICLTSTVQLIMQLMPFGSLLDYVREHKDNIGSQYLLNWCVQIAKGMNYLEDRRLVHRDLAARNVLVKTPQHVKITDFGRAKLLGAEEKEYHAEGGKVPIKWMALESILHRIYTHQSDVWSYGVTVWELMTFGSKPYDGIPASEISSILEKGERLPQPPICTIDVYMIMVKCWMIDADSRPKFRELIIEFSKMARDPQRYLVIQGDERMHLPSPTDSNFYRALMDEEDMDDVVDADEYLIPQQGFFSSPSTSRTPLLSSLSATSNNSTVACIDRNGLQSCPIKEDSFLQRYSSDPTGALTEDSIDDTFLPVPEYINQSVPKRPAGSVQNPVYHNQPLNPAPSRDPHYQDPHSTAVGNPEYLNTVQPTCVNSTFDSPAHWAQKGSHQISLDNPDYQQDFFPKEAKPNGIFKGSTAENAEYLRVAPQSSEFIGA

Row | Compound | AUC [1] [ng·h/mL] | half-life [1] [h] | IC50 ([2]; read-out: IC50 (class symbol)) [nM] | IC50 [2, 5] [nM] | IC50 ([3]; read-out: IC50 (class symbol)) [nM] | IC50 ([3]; read-out: IC50 (value)) [nM] | DC50 [4] [nM] | IC50 (A431 (EGFR-WT) cells) [nM] | AUC(0-t) [1] [ng·h/mL]
1 | COc1cc(N2CCN(CC3CCN(c4ccc5c(c4)C(=O)N(C4CCC(=O)NC4=O)C5=O)C3)CC2)c(-c2cnn(C)c2)cc1Nc1ncc(Cl)c(Nc2ccc(-c3ccccc3)cc2P(C)(C)=O)n1 (stereo not shown) [Compound 68, 5-(3-((4-(4-((5-chloro-4-((3-(dimethylphosphoryl)-[1,1′-biphenyl]-4-yl)amino)pyrimidin-2-yl)amino)-5-methoxy-2-(1-methyl-1H-pyrazol-4-yl)phenyl)piperazin-1-yl)methyl)pyrrolidin-1-yl)-2-(2,6-dioxopiperidin-3-yl)isoindoline-1,3-dione] | 53200 | 3.47 | < 100 | 66 | 200 to 500 | 280 | < 100 | ≥ 10000 | –
2 | COc1cc(N2CCN(CC3CCN(c4ccc5c(c4)C(=O)N(C4CCC(=O)NC4=O)C5=O)CC3)CC2)c(-c2cnn(C)c2)cc1Nc1ncc(Br)c(Nc2ccc(-c3ccccc3)cc2P(C)(C)=O)n1 (stereo not shown) [Compound 77, 5-(4-((4-(4-((5-bromo-4-((3-(dimethylphosphoryl)-[1,1′-biphenyl]-4-yl)amino)pyrimidin-2-yl)amino)-5-methoxy-2-(1-methyl-1H-pyrazol-4-yl)phenyl)piperazin-1-yl)methyl)piperidin-1-yl)-2-(2,6-dioxopiperidin-3-yl)isoindoline-1,3-dione] | 47300 | 5.79 | < 100 | 32 | < 200 | 46 | < 100 | ≥ 10000 | –
3 | COc1cc(N2CCC(N3CCN(c4ccc5c(c4)C(=O)N(C4CCC(=O)NC4=O)C5=O)CC3)CC2)c(-c2cnn(C)c2)cc1Nc1ncc(Br)c(Nc2ccc(-c3ccccc3)cc2P(C)(C)=O)n1 (stereo not shown) [Compound 81, 5-(4-(1-(4-((5-bromo-4-((3-(dimethylphosphoryl)-[1,1′-biphenyl]-4-yl)amino)pyrimidin-2-yl)amino)-5-methoxy-2-(1-methyl-1H-pyrazol-4-yl)phenyl)piperidin-4-yl)piperazin-1-yl)-2-(2,6-dioxopiperidin-3-yl)isoindoline-1,3-dione] | – | – | < 100 | 71 | < 200 | 49 | < 100 | ≥ 10000 | 51000
4 | COc1cc(N2CCC(N3CCC4(CCN(c5ccc6c(c5)C(=O)N(C5CCC(=O)NC5=O)C6=O)CC4)CC3)CC2)c(-c2cnn(C)c2)cc1Nc1ncc(Br)c(Nc2ccc(-c3ccccc3)cc2P(C)(C)=O)n1 (stereo not shown) [Compound 84, 5-(9-(1-(4-((5-bromo-4-((3-(dimethylphosphoryl)-[1,1′-biphenyl]-4-yl)amino)pyrimidin-2-yl)amino)-5-methoxy-2-(1-methyl-1H-pyrazol-4-yl)phenyl)piperidin-4-yl)-3,9-diazaspiro[5.5]undecan-3-yl)-2-(2,6-dioxopiperidin-3-yl)isoindoline-1,3-dione] | – | – | < 100 | 43 | < 200 | 47 | < 100 | ≥ 10000 | 4570

Second part, the compound after the results:

Row | AUC [1] [ng·h/mL] | half-life [1] [h] | IC50 ([2]; read-out: IC50 (class symbol)) [nM] | IC50 [2, 5] [nM] | IC50 ([3]; read-out: IC50 (class symbol)) [nM] | IC50 ([3]; read-out: IC50 (value)) [nM] | DC50 [4] [nM] | IC50 (A431 (EGFR-WT) cells) [nM] | AUC(0-t) [1] [ng·h/mL] | Compound
5 | 35900 | 4.16 | < 100 | 46 | < 200 | 68 | < 100 | ≥ 10000 | – | COc1cc(N2CCN(CC3CCN(c4ccc5c(c4)C(=O)N(C4CCC(=O)NC4=O)C5=O)CC3)CC2)c(-c2cnn(C)c2)cc1Nc1ncc(Cl)c(Nc2ccc(-c3ccccc3)cc2P(C)(C)=O)n1 (stereo not shown) [Compound 90, 5-(4-((4-(4-((5-chloro-4-((3-(dimethylphosphoryl)-[1,1′-biphenyl]-4-yl)amino)pyrimidin-2-yl)amino)-5-methoxy-2-(1-methyl-1H-pyrazol-4-yl)phenyl)piperazin-1-yl)methyl)piperidin-1-yl)-2-(2,6-dioxopiperidin-3-yl)isoindoline-1,3-dione]
6 | 63000 | 6.88 | < 100 | 71 | < 200 | 65 | < 100 | ≥ 10000 | – | COc1cc(N2CCC(N3CCN(c4ccc5c(c4)C(=O)N(C4CCC(=O)NC4=O)C5=O)CC3)CC2)c(-c2cnn(C)c2)cc1Nc1ncc(Cl)c(Nc2ccc(-c3ccccc3)cc2P(C)(C)=O)n1 (stereo not shown) [Compound 92, 5-(4-(1-(4-((5-chloro-4-((3-(dimethylphosphoryl)-[1,1′-biphenyl]-4-yl)amino)pyrimidin-2-yl)amino)-5-methoxy-2-(1-methyl-1H-pyrazol-4-yl)phenyl)piperidin-4-yl)piperazin-1-yl)-2-(2,6-dioxopiperidin-3-yl)isoindoline-1,3-dione]
7 | – | – | < 100 | 36 | < 200 | 60 | < 100 | ≥ 10000 | 47000 | COc1cc(N2CCN(CC3CCN(c4ccc5c(c4)C(=O)N(C4CCC(=O)NC4=O)C5=O)CC3)CC2)c(-c2cnn(C)c2)cc1Nc1ncc(Br)c(Nc2ccc(-c3ccccc3F)cc2P(C)(C)=O)n1 (stereo not shown) [Compound 96, 5-(4-((4-(4-((5-bromo-4-((3-(dimethylphosphoryl)-2′-fluoro-[1,1′-biphenyl]-4-yl)amino)pyrimidin-2-yl)amino)-5-methoxy-2-(1-methyl-1H-pyrazol-4-yl)phenyl)piperazin-1-yl)methyl)piperidin-1-yl)-2-(2,6-dioxopiperidin-3-yl)isoindoline-1,3-dione]
8 | – | – | < 100 | 62 | < 200 | 79 | < 100 | ≥ 10000 | 42300 | COc1cc(N2CCN(CC3CCN(c4ccc5c(c4)C(=O)N(C4CCC(=O)NC4=O)C5=O)CC3)CC2)c(-c2cnn(C)c2)cc1Nc1ncc(Cl)c(Nc2ccc(-c3ccccc3F)cc2P(C)(C)=O)n1 (stereo not shown) [Compound 97, 5-(4-((4-(4-((5-chloro-4-((3-(dimethylphosphoryl)-2′-fluoro-[1,1′-biphenyl]-4-yl)amino)pyrimidin-2-yl)amino)-5-methoxy-2-(1-methyl-1H-pyrazol-4-yl)phenyl)piperazin-1-yl)methyl)piperidin-1-yl)-2-(2,6-dioxopiperidin-3-yl)isoindoline-1,3-dione]
9 | – | – | < 100 | 33 | < 200 | 57 | < 100 | ≥ 10000 | 25000 | COc1cc(N2CCN(C3CCN(c4ccc5c(c4)C(=O)N(C4CCC(=O)NC4=O)C5=O)CC3)CC2)c(-c2cnn(C)c2)cc1Nc1ncc(Br)c(Nc2ccc(-c3ccccc3)cc2P(C)(C)=O)n1 (stereo not shown) [Compound 99, 5-(4-(4-(4-((5-bromo-4-((3-(dimethylphosphoryl)-[1,1′-biphenyl]-4-yl)amino)pyrimidin-2-yl)amino)-5-methoxy-2-(1-methyl-1H-pyrazol-4-yl)phenyl)piperazin-1-yl)piperidin-1-yl)-2-(2,6-dioxopiperidin-3-yl)isoindoline-1,3-dione]
